{"source": "patent US11873496B2", "about": "“Methods of altering gene expression by perturbing transcription factor multimers that structure regulatory loops” (Whitehead Institute for Biomedical Research, priority 2017, dated 2024)", "molecules": {"B1": {"name": "competitor DNA with YY1 consensus sites (dsDNA)", "DNA 1": "GAGCAACAACAACAACGAACCGGTTCGACCTCCCCGGCCATCTTTCGACCTCCCCGGCCATCTTTCGACCTCCCCGGCCATCTTTCGACCTCCCCGGCCATCTTTCGACCTCCCCGGCCATCTTTCGACCTCCCCGGCCATCTTTCGACCTCCCCGGCCATCTTTCGACCTCCCGTCGACAGAGGCAGCAAAAGCCAGA", "DNA 2": "TCTGGCTTTTGCTGCCTCTGTCGACGGGAGGTCGAAAGATGGCCGGGGAGGTCGAAAGATGGCCGGGGAGGTCGAAAGATGGCCGGGGAGGTCGAAAGATGGCCGGGGAGGTCGAAAGATGGCCGGGGAGGTCGAAAGATGGCCGGGGAGGTCGAAAGATGGCCGGGGAGGTCGAACCGGTTCGTTGTTGTTGTTGCTC"}, "B2": {"name": "RNase A: RNase A (Sigma, R4642) used to treat nuclear extract (protein, UniProt P61823 27-150, looked up)", "Ribonuclease pancreatic": "KETAAAKFERQHMDSSTSAASSSNYCNQMMKSRNLTKDRCKPVNTFVHESLADVQAVCSQKNVACKNGQTNCYQSYSTMSITDCRETGSSKYPNCAYKTTQANKHIIVACEGNPYVPVHFDASV"}}, "key": {"[1]": {"biological_target": "T1, AID-tagged CTCF protein (UniProt P93830+Q61164+Q7XVM8)", "T1 construct": "The AID tag was knocked-in at the endogenous Ctcf gene locus", "conditions": "washout; cited from earlier work"}, "[2]": {"biological_target": "T2, AID-tagged CTCF protein (UniProt Q61164)", "T2 construct": "The AID tag was knocked-in at the endogenous Ctcf gene locus", "conditions": "AID tag knocked-in at endogenous Ctcf locus; cited from earlier work"}, "[3]": {"biological_target": "YY1 (Homo sapiens, UniProt P25490 P25490:1-414)", "assay": "competition; 100 nM competitor abrogated YY1-enhanced circularization of template, 20 C", "experimental": "Reactions were incubated at 20° C. for 20 minutes to allow binding of YY1 to the DNA. For each timepoint 6 µL of the reaction was withdrawn and quenched in a total volume of 9 µL with a final concentration of 30 mM EDTA, 1×NEB loading dye (NEB, B7024S), 1 ug/µL of proteinase K, and heated at 65° C. for 5 minutes. Timepoint 0 was taken and then 600 units of T4 DNA ligase (NEB M0202) was added and the reaction was carried out at 20° C. Indicated timepoints were taken and then samples were run on a 4-20% TBE gradient gel for three hours at 120 V. The gel was stained with SYBR Gold (Life Technologies S11494) and imaged with a CCD camera."}, "[4]": {"biological_target": "T3, FLAG-tagged YY1 and HA-tagged YY1 (Homo sapiens, UniProt P25490)", "T3 construct": "expressed in transfected cells; host or cells: V6.5 mESCs, transient transfection, nuclear extract", "assay": "Co-immunoprecipitation of FLAG-tagged and HA-tagged YY1 from nuclear extracts", "type": "binding, mouse", "conditions": "nuclear extract treated prior to immunoprecipitation", "experimental": "V6.5 mESCs were transfected with pcDNA3 FLAG YY1 and pcDNA3 […] using Lipofectamine 3000 (Life Technologies #L3000001) according to the manufacturer's instructions. Briefly, cells were split and 8 million cells were plated onto a gelatinized 15 cm plate. 7.5 μg of each plasmid was mixed with 30 μL P3000 reagent and 75 μL Lipofectamine 3000 reagent (Life Technologies #L3000001) in 1250 μL of DMEM (Life technologies #11995-073). After ˜12-16 hours media was changed.\nCells were harvested 48 hours after transfection by washing twice with ice-cold PBS and collected by scraping in ice-cold PBS. Harvested cells were centrifuged at 1,000 rcf for 3 minutes to pellet cells. Supernatant was discarded and cell pellets were flash frozen and stored at −80° C. until ready to prepare nuclear extract. For each 15 cm plate of cells, frozen cell pellets were resuspended in 5 mL of ice-cold hypotonic lysis buffer (20 mM HEPES-KOH pH 7.5, 20% glycerol, 10 mM NaCl, 0.1% Triton X-100, 1.5 mM MgCl2, 0.5 mM DTT and protease inhibitor (Roche, 11697498001)) and incubated on ice for 10 minutes to extract nuclei. Nuclei were pelleted by centrifugation at 14,000 rcf for 10 minutes at 4° C. […] Protein concentration of extracts was quantified by BCA assay (Thermo Scientific, 23225) and protein concentration was adjusted to 400 μg/mL by addition of appropriate volume of 1:2 nuclear extraction buffer:dilution buffer. […]"}}, "data": [{"molecule": "O=C(O)Cc1c[nH]c2ccccc12", "note": "[auxin]", "values": [{"measurement": "washout time allowing recovery of CTCF protein", "setting": "[1]", "result": 2, "unit": "days"}, {"measurement": "CTCF protein degradation", "setting": "[2]", "result": "proteasome-mediated degradation"}]}, {"molecule": "B1", "values": [{"measurement": "binding result", "setting": "[3]", "result": "binds"}]}, {"molecule": "B2", "values": [{"measurement": "reduction in the amount of co-immunoprecipitated YY1 partner protein", "setting": "[4]", "result": "~60", "unit": "%"}]}]}
